Data published in the CheMixHub viscosity set.
Values joined by “and” are separate entries in the source; they are usually repeats but may differ in a detail not shown here. Equal entries are not always repeated.

Tests used:
[1] = xn = mol fraction of the nth substance listed; details: 101 kPa

CC(C)CCO
Details	viscosity
293.15 K, 101.33 kPa	4.579 mPa·s
298.1 K, 101 kPa	3.841 mPa·s and 3.798 mPa·s
298.15 K, 100 kPa	3.74 mPa·s
298.15 K, 101.3 kPa	3.48 mPa·s
298.15 K, 101.33 kPa	3.581 mPa·s
303.15 K, 101.3 kPa	2.95 mPa·s and 2.958 mPa·s and 2.96 mPa·s
308.15 K, 100 kPa	2.654 mPa·s
308.15 K, 101 kPa	2.805 mPa·s and 2.61 mPa·s and 2.881 mPa·s
308.15 K, 101.3 kPa	2.53 mPa·s
308.15 K, 101.33 kPa	2.59 mPa·s
313.15 K, 101.3 kPa	2.21 mPa·s
313.15 K, 101.33 kPa	2.537 mPa·s and 2.391 mPa·s
318.15 K, 101 kPa	2.05 mPa·s and 2.23 mPa·s
323.15 K, 101 kPa	1.867 mPa·s and 1.974 mPa·s
323.15 K, 101.33 kPa	1.827 mPa·s

CC(CC(C)(C)C)CP(=O)(O)CC(C)CC(C)(C)C (stereo unspecified)
Details	viscosity [mPa·s]
298.15 K, 101 kPa	120

CCCCCCCCBr
101 kPa
Details	viscosity [mPa·s]
293.15 K	1.544
303.55 K	1.406
313.65 K	1.204

CCCCCCCCCCOC(C)=O
Details	viscosity [mPa·s]
303.15 K, 101.3 kPa	2.145

CCOCCO
viscosity
Details	293.15 K	298.15 K	303 K	303.15 K	308.15 K	313 K	313.15 K	318.15 K	323.15 K
100 kPa	–	1.92 mPa·s	–	1.682 mPa·s	–	–	–	–	–
101 kPa	2.054 mPa·s	1.814 mPa·s	1.67 mPa·s	–	1.487 mPa·s and 1.453 mPa·s and 1.469 mPa·s	1.341 mPa·s	1.336 mPa·s and 1.341 mPa·s and 1.368 mPa·s	1.279 mPa·s	1.065 mPa·s
101.3 kPa	2.04 mPa·s	1.819 mPa·s	–	1.631 mPa·s	1.402 mPa·s and 1.47 mPa·s	–	1.332 mPa·s	1.212 mPa·s	1.108 mPa·s
101.33 kPa	–	–	–	–	–	–	–	1.18 mPa·s	–

CNC(C)=O
viscosity
Details	293.15 K	298.15 K	303.15 K	303.18 K	308.15 K	313 K	313.15 K	318.15 K
101 kPa	5.56 mPa·s	4.771 mPa·s	4.087 mPa·s and 3.822 mPa·s (2×)	3.65 mPa·s	3.535 mPa·s	3.012 mPa·s	3.078 mPa·s and 2.904 mPa·s	2.764 mPa·s and 2.607 mPa·s
101.33 kPa	–	–	–	–	3.38 mPa·s	–	3.012 mPa·s and 3.004 mPa·s	2.673 mPa·s

CNCCO
viscosity
Details	293.15 K	298.15 K	303.15 K	308.15 K	313.15 K	318.15 K	323.15 K
101 kPa	–	–	8.596 mPa·s	7.075 mPa·s	5.892 mPa·s	4.949 mPa·s	4.204 mPa·s
101.3 kPa	13.23 mPa·s	10.63 mPa·s	8.612 mPa·s and 8.535 mPa·s	7.07 mPa·s and 7.014 mPa·s	5.883 mPa·s and 5.841 mPa·s	4.953 mPa·s and 4.919 mPa·s	4.214 mPa·s and 4.186 mPa·s
101.33 kPa	–	12 mPa·s	9.528 mPa·s	–	6.396 mPa·s	–	–

C[C@@H]1CCCC[C@H]1O
101 kPa
Details	viscosity [mPa·s]
298.15 K	37.35
303.15 K	25.29

Cc1cccc(Cl)c1
viscosity
Details	303.15 K	308.15 K	313.15 K	318.15 K
100 kPa	0.743 mPa·s	0.701 mPa·s	0.663 mPa·s	0.624 mPa·s
101 kPa	0.751 mPa·s and 0.743 mPa·s	0.701 mPa·s	0.652 mPa·s and 0.663 mPa·s	0.624 mPa·s

Cn1cc[n+](CCCC#N)c1.O=S(=O)([O-])C(F)(F)F
101 kPa
Details	viscosity [mPa·s]
293.15 K	811.5
298.15 K	580.6
303.15 K	422.5
308.15 K	310.1
313.15 K	230.6
318.15 K	177.1
323.15 K	141.4

FC(F)(F)C(F)(F)C(F)(F)C(F)(F)C(F)(F)C(F)(F)F
101 kPa
Details	viscosity [mPa·s]
298 K	0.635
303 K	0.589
308 K	0.548

N#C[C-](C#N)C#N.OCCC[n+]1ccccc1
101 kPa
Details	viscosity [mPa·s]
293.15 K	126.3
298.15 K	92.54
303.15 K	69.51
308.15 K	53.84
313.15 K	42.53
318.15 K	34.64
323.15 K	28.1

Oc1ccc(Cl)cc1
Details	viscosity [mPa·s]
308.15 K, 101.33 kPa	8.228

CCOCCO + OCCOCCO
[1]
Details	viscosity [mPa·s]
293.15 K, x1 = 0.0582	33.17
293.15 K, x1 = 0.0952	30.25
293.15 K, x1 = 0.2037	23.28
293.15 K, x1 = 0.3098	18.21
293.15 K, x1 = 0.4062	14.48
293.15 K, x1 = 0.4503	13.03
293.15 K, x1 = 0.5003	11.5
293.15 K, x1 = 0.5413	10.37
293.15 K, x1 = 0.5988	8.935
293.15 K, x1 = 0.6952	6.844
293.15 K, x1 = 0.8031	4.921
293.15 K, x1 = 0.9002	3.465
293.15 K, x1 = 0.9508	2.759
298.15 K, x1 = 0.0511	26.45
298.15 K, x1 = 0.1023	23.41
298.15 K, x1 = 0.2003	18.57
298.15 K, x1 = 0.2998	14.7
298.15 K, x1 = 0.3988	11.61
298.15 K, x1 = 0.4514	10.25
298.15 K, x1 = 0.4998	9.068
298.15 K, x1 = 0.5476	8.079
298.15 K, x1 = 0.5996	7.096
298.15 K, x1 = 0.6983	5.447
298.15 K, x1 = 0.7991	4.05
298.15 K, x1 = 0.882	3.061
298.15 K, x1 = 0.95	2.337
303.15 K, x1 = 0.0643	18.69
303.15 K, x1 = 0.0932	17.45
303.15 K, x1 = 0.2072	13.23
303.15 K, x1 = 0.3008	10.56
303.15 K, x1 = 0.4001	8.317
303.15 K, x1 = 0.4496	7.372
303.15 K, x1 = 0.4939	6.612
303.15 K, x1 = 0.5508	5.751
303.15 K, x1 = 0.5913	5.201
303.15 K, x1 = 0.701	3.93
303.15 K, x1 = 0.7959	3.051
303.15 K, x1 = 0.899	2.267
303.15 K, x1 = 0.9218	2.117
